Data taken from ChEMBL document CHEMBL4152289, “Novel 8-nitroquinolin-2(1H)-ones as NTR-bioactivated antikinetoplastid molecules: Synthesis, electrochemical and SAR study” (Eur J Med Chem, 2018).

Experiments:
[1] = Electrochemical behavior of the compound assessed as redox potential corrected toward normal hydrogen electrode at 10^-3 mol/L by cyclic voltammetry; details: 1000 µM
Leishmania infantum = test: microbe, parasite or virus in culture; type: functional, organism-based; details: MHOM/MA/67/ITMAP-263, 48 h
[2] = system: Trypanosoma brucei brucei; test: Antitrypanosomal activity against trypomastigote stage of Trypanosoma brucei brucei AnTat 1.9 assessed as decrease in parasite viability after 69 hrs by Alamar Blue assay; type: functional, organism-based; details: AnTat 1.9, 69 h
HepG2 = test: Cytotoxicity against human HepG2 cells assessed as decrease in cell viability after 72 hrs by MTT assay; details: hepg2, 72 h

O=[N+]([O-])c1cccc2cccnc12
Activity [1]: -0.84 V | IC50 (Leishmania infantum): > 100 µM | IC50 [2]: 17.9 µM | CC50 (HepG2): > 100 µM

Oc1ccc2ccccc2n1
Activity [1]: -1.86 V | IC50 (Leishmania infantum): > 100 µM | IC50 [2]: > 50 µM | CC50 (HepG2): > 100 µM

O=[N+]([O-])c1cccc2nc(O)ccc12
Activity [1]: -0.67 V | IC50 (Leishmania infantum): > 100 µM | IC50 [2]: > 50 µM | CC50 (HepG2): > 100 µM

O=[N+]([O-])c1ccc2nc(O)ccc2c1
Activity [1]: -0.82 V | IC50 (Leishmania infantum): > 100 µM | IC50 [2]: 2.3 µM | CC50 (HepG2): > 100 µM

Cn1c(=O)ccc2ccccc21
IC50 (Leishmania infantum): > 100 µM | IC50 [2]: > 50 µM | CC50 (HepG2): > 100 µM

O=c1cc(Br)c2cccc([N+](=O)[O-])c2[nH]1
Activity [1]: -0.51 V | IC50 (Leishmania infantum): 20.3 µM | IC50 [2]: 5.5 µM | CC50 (HepG2): 60 µM

CC(=O)Nc1ccccc1[N+](=O)[O-]
Activity [1]: -0.68 V | IC50 (Leishmania infantum): > 100 µM | IC50 [2]: > 50 µM | CC50 (HepG2): > 100 µM

Cc1ccc2ccc(=O)[nH]c2c1[N+](=O)[O-]
Activity [1]: -0.71 V | IC50 (Leishmania infantum): > 100 µM | IC50 [2]: > 50 µM | CC50 (HepG2): > 100 µM

COc1nc2c([N+](=O)[O-])cccc2cc1Br
Activity [1]: -0.86 V | IC50 (Leishmania infantum): > 6.2 µM | IC50 [2]: 0.4 µM | CC50 (HepG2): > 6.2 µM

CC(C)(C)OC(=O)NCCOCCOCCNCc1cc(=O)[nH]c2c([N+](=O)[O-])cccc12
IC50 (Leishmania infantum): > 100 µM | IC50 [2]: 2.5 µM | CC50 (HepG2): > 100 µM

Nc1ccc2cccnc2c1[N+](=O)[O-]
Activity [1]: -1.1 V | IC50 (Leishmania infantum): > 100 µM | IC50 [2]: > 50 µM | CC50 (HepG2): > 100 µM

COc1ccc2ccc(=O)[nH]c2c1[N+](=O)[O-]
Activity [1]: -0.75 V | IC50 (Leishmania infantum): > 100 µM | IC50 [2]: > 50 µM | CC50 (HepG2): > 100 µM

Cc1cc(=O)[nH]c2c([N+](=O)[O-])cccc12
Activity [1]: -0.53 V | IC50 (Leishmania infantum): 10.2 µM | IC50 [2]: 20.9 µM | CC50 (HepG2): 110 µM

O=c1cnc2cccc([N+](=O)[O-])c2[nH]1
Activity [1]: -0.46 V | IC50 (Leishmania infantum): 11 µM | IC50 [2]: 7.3 µM | CC50 (HepG2): 125 µM

COc1ccc([N+](=O)[O-])c2[nH]c(=O)ccc12
Activity [1]: -0.65 V | IC50 (Leishmania infantum): > 100 µM | IC50 [2]: > 50 µM | CC50 (HepG2): > 100 µM
